Measurements published in ChEMBL document CHEMBL4043219, “Development of sulfonamides incorporating phenylacrylamido functionalities as carbonic anhydrase isoforms I, II, IX and XII inhibitors” (Bioorg Med Chem, 2017).

biological target: Carbonic anhydrase 9 (Homo sapiens, UniProt Q16790)
Description: Inhibition of human recombinant carbonic anhydrase-9 preincubated for 10 mins by stopped-flow CO2 hydration assay

Row | Ki | SMILES
1 | 4.9 nM | NS(=O)(=O)c1ccc(NC(=O)/C=C/c2ccc(OC(F)(F)F)cc2)cc1
2 | 12.6 nM | NS(=O)(=O)c1ccc(NC(=O)/C=C/c2ccc(Cl)cc2)cc1
3 | 11.6 nM | NS(=O)(=O)c1ccc(NC(=O)/C=C/c2cccc(C(F)(F)F)c2)cc1
4 | 2.4 nM | NS(=O)(=O)c1ccc(NC(=O)/C=C/c2ccc(C(F)(F)F)cc2)cc1
5 | 2.4 nM | NS(=O)(=O)c1ccc(NC(=O)/C=C/c2ccc(F)cc2)cc1

Continued, molecule first:

Row | SMILES | Ki
6 | COc1ccc(/C=C/C(=O)Nc2ccc(S(N)(=O)=O)cc2)cc1OC | 9.3 nM
7 | NS(=O)(=O)c1ccc(NC(=O)/C=C/c2ccc(F)c(F)c2)cc1 | 151 nM
8 | CC(C)Oc1ccc(/C=C/C(=O)Nc2ccc(S(N)(=O)=O)cc2)cc1 | 20.3 nM
9 | N#Cc1ccc(/C=C/C(=O)Nc2ccc(S(N)(=O)=O)cc2)cc1 | 8 nM
10 | NS(=O)(=O)c1ccc(NC(=O)/C=C/c2cc(Cl)cc(Cl)c2)cc1 | 229 nM
11 | COc1ccc(/C=C/C(=O)Nc2ccc(S(N)(=O)=O)cc2)c(OC)c1 | 9.6 nM
12 | NS(=O)(=O)c1ccc(NC(=O)/C=C/c2ccccc2OC(F)F)cc1 | 1.8 nM
13 | COc1ccc(/C=C/C(=O)Nc2ccc(S(N)(=O)=O)cc2)cc1 | 5.3 nM
14 | NS(=O)(=O)c1ccc(NC(=O)/C=C/c2cccc(F)c2)cc1 | 2 nM
15 | COc1ccc(/C=C/C(=O)Nc2ccc(S(N)(=O)=O)cc2)c(F)c1 | 11.2 nM
16 | COc1cc(/C=C/C(=O)Nc2ccc(S(N)(=O)=O)cc2)cc(OC)c1OC | 126 nM

biological target: Carbonic anhydrase 12 (Homo sapiens, UniProt O43570); experiment: Inhibition of human recombinant carbonic anhydrase-12 preincubated for 10 mins by stopped-flow CO2 hydration assay
Sequence (O43570 whole entry): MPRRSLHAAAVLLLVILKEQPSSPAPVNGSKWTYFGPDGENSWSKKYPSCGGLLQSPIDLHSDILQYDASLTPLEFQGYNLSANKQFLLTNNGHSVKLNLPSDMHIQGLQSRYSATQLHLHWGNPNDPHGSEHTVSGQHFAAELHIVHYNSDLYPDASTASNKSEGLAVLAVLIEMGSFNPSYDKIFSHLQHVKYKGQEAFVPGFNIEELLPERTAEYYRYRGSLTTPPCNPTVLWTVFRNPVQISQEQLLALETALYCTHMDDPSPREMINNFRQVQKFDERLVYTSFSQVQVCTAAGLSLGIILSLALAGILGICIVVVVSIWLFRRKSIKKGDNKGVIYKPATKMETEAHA

Row | Ki | SMILES
17 | 4.6 nM | NS(=O)(=O)c1ccc(NC(=O)/C=C/c2ccccc2OC(F)F)cc1
